Measured values taken from patent US11840686B2, “Modulation of prekallikrein (PKK) expression” (Ionis Pharmaceuticals, Inc., priority 2013, dated 2023).
Strand notation (5' to 3'): a small letter for the sugar, then the base; units joined by * are phosphorothioate-linked, units joined directly phosphodiester-linked; [ ] holds rarer units or linkages, { } end groups; capitals alone tell only the bases. e = 2'-O-(2-methoxyethyl) (MOE); [5mC] = 5-methylcytosine; d = 2'-deoxy (DNA)

Legend:
[1] = Urine protein/creatinine ratio in cynomolgus monkeys (Example 8); details: cynomolgus monkey, 40 mg/kg sc
Protocol: Prior to the study, the monkeys were kept in quarantine for a 30-day period, during which the animals were observed daily for general health. The monkeys were 2-4 years old and weighed between 2 and 4 kg. Ten groups of four randomly assigned male cynomolgus monkeys each were injected subcutaneously with ISIS oligonucleotide or PBS. PBS solution or ISIS oligonucleotides at a dose of 40 mg/kg were administered initially with a loading regimen consisting of four doses on the first week of the study (days 1, 3, 5, and 7), followed by a maintenance regimen consisting of once weekly administration starting on Day 14 (weeks 2 to 13). Subcutaneous injections were performed in clock-wise rotations at 4 sites on the back; one site per dose. The injection sites were delineated by tattoo, while sedated using ketamine, and were separated by a minimum of 3 cm.
Kidney function was also assessed by urinalysis. Fresh urine from all animals was collected using a clean cage pan on wet ice. Food was removed overnight the day before fresh urine collection was done but water was supplied. The total protein and creatinine levels were measured using a Toshiba 120FR NEO automated chemistry analyzer (Toshiba Co., Japan) and the protein to creatinine ratio was calculated.

PKK mRNA = PKK mRNA in liver of mice treated with ISIS 461756 (Example 18); assay type: in vivo, mouse
Protocol: (§1) Vascular permeability induced by ISIS 461756, an antisense oligonucleotide which targets murine C1 inhibitor mRNA, increases vascular permeability in mice and replicates the pathology of hereditary angioedema. The effect of ISIS 482584 on this model was evaluated.
(§2) One group of 8 mice was treated with 40 mg/kg ISIS 482584 administered subcutaneously twice a week for 3 weeks (weekly dose of 80 mg/kg). A second group of 8 mice was treated with 40 mg/kg of the control oligonucleotide, ISIS 141923, administered subcutaneously twice a week for 3 weeks (weekly dose of 80 mg/kg). A third group of 8 mice was treated with PBS administered subcutaneously twice a week for 3 weeks. On day 14, all the groups were treated with 12.5 mg/kg ISIS 461756 administered subcutaneously twice a week for 3 weeks (weekly dose of 25 mg/kg). A control group of mice was treated with PBS administered subcutaneously twice a week for 3 weeks but was not administered ISIS 461756.
(§3) At the end of the treatment period, all the groups were injected with 30 mg/kg of Evans Blue solution into the tail vein. The mice were sacrificed 30 min after the Evans Blue solution administration and colons, feet, ears, and intestines were harvested. The liver was also harvested for RNA analysis.
RNA was isolated from the liver for RT-PCR analysis of C1-INH and PKK mRNAs. The primer probe set for C1-INH is RTS3218 (forward sequence […], designated herein as SEQ ID NO: 2234; reverse sequence […], designated herein as SEQ ID NO: 2235; probe sequence […], designated herein as SEQ ID NO: 2236). The primer probe set for PKK is RTS3287 (forward sequence […], designated herein as SEQ ID NO: 2237; reverse sequence […], designated herein as SEQ ID NO: 2238; probe sequence […], designated herein as SEQ ID NO: 2239). The results are presented in Table 79 as percent inhibition compared to the PBS control not treated with ISIS 461756.

[2] = tested on: vascular permeability induced by ISIS 461756; test: C1-INH antisense oligonucleotide-induced vascular permeability, Evans Blue OD600 (Example 18); assay type: in vivo, mouse
Protocol: as §1, §2, §3
The harvested tissues from the feet, colon, and intestines were placed in formamide solution overnight to leach out the Evans Blue dye. The formamide solution containing feet tissue was heated to 55° C. and left overnight. The color intensity of the dye-infused formamide solution was then measured at OD600 nm. The data is presented in Table 80 as percent increase or reduction compared to the PBS control not treated with ISIS 461756.

[3] = tested on: captopril-induced vascular permeability; test: Combination of PKK and Factor 12 antisense oligonucleotides on captopril-induced vascular permeability (Example 15); assay type: in vivo, mouse; details: positive control: PBS + captopril 20 μg ip + HOE-140 30 μg ip
Protocol: Mice were treated varying doses of ISIS 410944, a 5-10-5 MOE gapmer targeting Factor 12 ([…]; SEQ ID NO: 2247), and ISIS 482584 in a captopril-induced vascular permeability model.
Group 1 consisted of 4 mice and was treated with PBS administered subcutaneously twice a week for 3 weeks. No other treatment was administered to Group 1 which served as a control group to measure the basal levels of vascular permeability.
Group 2 consisted of 8 mice and was treated with PBS administered subcutaneously twice a week for 3 weeks. At the end of the treatment period, the mice were intraperitoneally administered 20 μg of captopril.
Group 3 consisted of 4 mice and was treated with PBS administered subcutaneously twice a week for 3 weeks. At the end of the treatment period, the mice were intraperitoneally administered 20 μg of captopril. The mice were also intraperitoneally administered 30 μg of HOE-140. Group 3 served as a positive control for inhibition of captopril-induced vascular permeability.
Groups 4, 5, 6, 7, and 8 consisted of 8 mice each and were treated with 2.5 mg/kg, 5 mg/kg, 10 mg/kg, 20 mg/kg, or 40 mg/kg (corresponding to 5 mg/kg, 10 mg/kg, 20 mg/kg, 40 mg/kg, or 80 mg/kg per week), respectively of ISIS 482584 and ISIS 410944 each administered subcutaneously twice a week for 3 weeks. At the end of the treatment period, the mice of all the groups were intraperitoneally administered 20 μg of captopril. Groups 4-8 served as the experimental treatment groups for examining the effect of ISIS 410944 and ISIS 482584 on captopril-induced vascular permeability.
All the groups were then injected with 30 mg/kg of Evans Blue solution in the tail vein. The mice were sacrificed 30 min after the Evans Blue solution administration and colons, feet, ears, and intestines were harvested.
The harvested tissues from the feet, colon, and ears were placed in formamide solution overnight to leach out the Evans Blue dye. The formamide solution containing feet and ear tissue was heated to 55° C. and left overnight. Higher OD values are associated with higher levels of permeability.

[4] = Evans Blue OD600, all groups ISIS 461756 25 mg/kg/wk, pretreatment PBS or oligonucleotide 80 mg/kg/wk

Compound: Tes Ges mCes Aes Aes Gds Tds mCds Tds mCds Tds Tds Gds Gds mCds Aes Aes Aes mCes Ae [ISIS 546254]
- Urine protein/creatinine ratio [1]: 0.04

Compound: ISIS 482584: 5-10-5 MOE gapmer targeting murine PKK, GGCATATTGGTTTTTGGAAT; SEQ ID NO: 2244 (antisense eG*eG*e[5mC]*eA*eT*dA*dT*dT*dG*dG*dT*dT*dT*dT*dT*eG*eG*eA*eA*eT)
- Percent inhibition of PKK mRNA expression compared to the untreated PBS control (PKK mRNA; liver, all groups ISIS 461756 25 mg/kg/wk, pretreatment PBS or oligonucleotide 80 mg/kg/wk sc 3 weeks): 78%
- PKK expression (PKK mRNA; mouse liver, 40 mg/kg s.c. twice a week for 3 weeks): significantly reduced PKK expression
- vascular permeability induced by ISIS 461756 ([2]; 40 mg/kg s.c. twice a week for 3 weeks): prevented vascular permeability induced by ISIS 461756
- Percent change in vascular permeability compared to the untreated PBS control, Colon [2, 4]: −23%
- Percent change in vascular permeability compared to the untreated PBS control, Feet [2, 4]: 2%
- Percent change in vascular permeability compared to the untreated PBS control, Intestines [2, 4]: −25%

Compound: NC(N)=NCCC[C@@H](N)C(=O)N[C@@H](CCCN=C(N)N)C(=O)N1CCC[C@H]1C(=O)N1C[C@H](O)C[C@H]1C(=O)NCC(=O)N[C@@H](Cc1cccs1)C(=O)N[C@@H](CO)C(=O)N1Cc2ccccc2C[C@@H]1C(=O)N1[C@H](C(=O)N[C@@H](CCCN=C(N)N)C(=O)O)C[C@@H]2CCCC[C@@H]21 [HOE-140, Icatibant, reference compound]
- OD600 nm of Evans Blue dye, Colon [3]: 0.23
- OD600 nm of Evans Blue dye, Ears [3]: 0.04
- OD600 nm of Evans Blue dye, Feet [3]: 0.06
- OD600 nm of Evans Blue dye, Intestines [3]: 0.15
